Assay results as given in patent US11478442B2, “Pharmaceutical compositions comprising DGLA and use of same” (DS Biopharma Limited, priority 2014, dated 2022).
Read-outs that look alike come from different tables or passages of the source. One block for each compound: values may come before it.

Columns and labels:
[1] = system: spontaneous hypertensive rats; assay: Anti-hypertension efficacy of DGLA and aspirin in spontaneous hypertensive rats with phenylephrine challenge; assay type: in vivo, rat; settings: for effect on mean systemic arterial pressure (in words): aspirin-fed rats
Protocol: An in vivo investigation of anti-hypertension efficacy following co-administration of DGLA and aspirin in spontaneous hypertensive rats was conducted. This experiment investigated the efficacy of DGLA when co-administered chronically with aspirin to reduce the hypertensive response induced acutely by phenylephrine in spontaneous hypertensive rats. Spontaneously hypertensive adult male rats (250-300 g), bred by Charles River Laboratories, were used for this assay. The animals were identified upon arrival as per CCPA guidelines. The animals were pair-housed by group (low dose+ Aspirin, high dose+ Aspirin or Aspirin alone) for the duration of the oral gavage prior to surgery. All animal care and vivarium maintenance was recorded, with documents kept at the test facility.
The concentrations of DGLA to be tested (50 and 500 mg/kg) as well as the concentration of aspirin (10 mg/kg) were selected by the Sponsor based on information available at the time of design of this study. They were selected to cover a range of concentrations useful for the identification of the mechanism of action of the test article.
All solution preparations were documented on a Solution Contents Form, defining labelling information and all relevant information on reagents: batch number, storage conditions, contents, and preparation/expiry dates.
The test article was formulated using olive oil as the vehicle. This stock solution was then administered by oral gavage once per day for seven consecutive days. A low and a high dose (50 mg/kg and 500 mg/kg) were tested.
A 5 mg/ml stock solution of Aspirin was prepared by dissolving the appropriate amount of aspirin in 100% DMSO which was then diluted in water. The concentration of DMSO was less than 1%. The appropriate volume was administered by oral gavage to each animal once per day for seven consecutive days. The stock solution was stored at room temperature and was considered stable for the duration of the gavage.
The appropriate volume was administered to each animal by an intravenous injection at the end of the experiment on the surgery day. The stock solution was stored at 4° C. and was considered stable for the duration of the experiment.
Male spontaneous hypertensive rats weighing approximately 300 g arrived at the facility at least two days before beginning the oral gavage. Animals were assigned to one of three groups (low dose+ aspirin, high dose+ aspirin, and aspirin), and were pair-housed during the acclimation period. Each group (n=4) received the appropriate compound by oral gavage using a 16G feeding needle. The stock solution was administered once per day for seven consecutive days. On the seventh day of administration, the animals underwent surgery and hypertensive monitoring.
Rats were anesthetized with a 2.5-3.0% isoflurane-O2 mixture in an induction box. When the animals were removed from the induction box, they were connected onto a nose cone to maintain anesthesia during the tracheotomy. The animals were tracheotomised with an endotracheal tube (7 cm length from connector to the tip made with a PE205 tube from BD and a 16G needle) to facilitate spontaneous breathing, stabilize hemodynamics, and to keep the rat under anesthesia with an isoflurane-O2 mixture. Two catheters were inserted: one in the right femoral artery for systemic arterial pressure (SAP) measurement, and one in the right femoral vein for delivery of the hypertensor and positive control. ECG signals were acquired with ECG contacts placed in a Lead-1 configuration on the anaesthetized animal, and a pulse oxymeter was attached to the animal's hind paw to enable continuous monitoring of the general condition of the rat during the surgical. Following baseline measurements, three doses of phenylephrine (3, 10 and 20 μg/kg) were delivered by an IV bolus injection, leaving 5 minutes between doses. […] After the positive control, 10 μg/kg of phenylephrine was administered again.

[2] = Phase one study, multiple dose (28 days): plasma pharmacokinetics of free DGLA incl. steady state; assay type: in vivo, human
Protocol: (§1) A single-center, double-blind, randomized, placebo-controlled, two part Phase one study was performed in healthy male and female subjects aged 18 to 45 years inclusive. The primary objective of this study was to assess the safety and plasma pharmacokinetics (PK) of orally administered single doses and orally administered multiple doses of DS107G capsules (once daily for 28 days) in healthy subjects.
(§2) Multiple dose part two of the study comprised two cohorts (Cohorts five and six) of eight subjects each, who were administered multiple doses of study drug in the fasted state for 28 days. Subjects in Cohorts five and six received DS107G 2000 or 4000 mg, respectively, or matching placebo once daily for 28 days. Cohort six was started after Cohort five safety data were evaluated by the SMC. No interim analysis was planned.
(§3) Safety assessments were monitored throughout the study.
(§4) In Part two of the study (Cohorts five and six), subjects were administered study drug (500-mg DS107G capsules or matching placebo capsules) once daily in the fasted state for 28 days. Subjects in Cohort five received study drug first and, if they tolerated the 2000-mg daily dose for the first 14 days, subjects in Cohort six were started on the 4000-mg daily dose for 28 days.
(§5) PK parameter was computed after correcting the dosed DGLA concentrations with baseline DGLA concentrations.

[3] = Phase one study, food effect: single 1000 mg dose fasted vs fed, plasma pharmacokinetics of free and total DGLA; assay type: in vivo, human; settings: for Tmax: human, plasma, oral, 1000 mg, read-out: total DGLA tmax, median
Protocol: The effect of food on the PK of an orally administered single dose of DS107G capsule in healthy subjects.
Subjects were randomly assigned in a 3:1 ratio of DG107G to placebo by block randomization. Single dose part one of the study comprised three cohorts of eight subjects each, with the addition of Cohort four based on evaluation of the safety data of Cohort three by the Safety Monitoring Committee (SMC). A single oral dose of DS107G or matching placebo was administered to fasted subjects in Cohorts one to three (500, 1000, and 2000 mg, respectively) in parallel; subjects in Cohort four were administered a dose of 4000 mg following completion of Cohort three. Subjects in Cohort two received 1000 mg or matching placebo in the fed state at 14 days after the first dose.
Food effect was evaluated in Cohort two at least 14 days after the first dose at which time a second single dose was administered. Subjects were administered a 1000-mg dose of study drug with 240 mL of water after a 10-hour fasting period and 30 minutes after starting consumption of a meal. Subjects then refrained from food intake for at least 4 hours after dosing. Food consumption was standardized for at least 12 hours after dosing using a standardized high-fat meal (800 to 1000 kcal with 500 to 600 kcal from fat and 250 kcal from carbohydrates). A typical standard test meal consisted of two eggs fried in butter, two strips of bacon, two slices of toast with butter, 120 mL of hash brown potatoes, and 240 mL of whole milk.
Subjects in Cohort two undergoing evaluation of the food effect on oral 1000 mg DGLA capsules were restricted from food consumption for at least 4 hours after dosing. Food consumption was standardized for at least 12 hours post dose using a standardized high-fat meal.

[4] = Phase one study, multiple dose (28 days): plasma pharmacokinetics of total DGLA incl. steady state; assay type: in vivo, human; settings: for half-life: 2000 mg, 2000 mg dose cohort, read-out: Median total DGLA elimination t½ (converted); for Peak Trough Fluctuation (PTF), mean (Table 24, total DGLA): steady-state, Day 28 (0-24 hours)
Protocol: as §1, §2, §3, §4, §5

[5] = Phase one study, multiple dose: free and total DGLA in skin blister fluid; assay type: in vivo, human
Source text: The PK of DGLA in human skin following multiple doses of DS107G capsule given once daily for 28 days to healthy subjects.

[6] = in vivo
[7] = concentrations from Days 1, 8, 14 and 28
[8] = DGLA 50 mg/kg gavage 7 days, before intravenous phenylephrine

Compound: CC(=O)Oc1ccccc1C(=O)O [Aspirin, reference compound]
Mean Arterial Pressure, Average ([1]; Aspirin 10 mg/kg/day gavage 7 days, Baseline): 136.8 mm Hg

free DGLA mean accumulation ratio (AR) for AUC ([2]; 2000 mg daily): ~3.3
free DGLA mean accumulation ratio (AR) for Cmax ([2]; 2000 mg daily): ~2.8
free DGLA mean accumulation ratio (AR) for AUC ([2]; 4000 mg daily): ~1.6
free DGLA mean accumulation ratio (AR) for Cmax ([2]; 4000 mg daily): ~1.4
day by which plasma concentrations reached steady-state ([2]; 2000 and 4000 mg daily, free and total DGLA): ~14 days
time after dosing at which mean concentrations of free DGLA peaked ([2]; Days 1 and 28, 2000 and 4000 mg daily): about 4 hours
free DGLA Cmax occurred sooner (median) under fasted than fed conditions [3]: 1 h
Tmax ([3]; fasted): 8 h
Tmax ([3]; fed): 15 h
half-life ([4]; both sexes, human, plasma, oral, Day 1, assessed over 24 hours): 34.4 h
half-life ([4]; both sexes, human, plasma, oral, Day 28, assessed over 24 hours): 44 h
half-life ([4]; both sexes, human, plasma, oral, Day 28, evaluated over 0 to 168 hours): 62.6 h
Tmax ([4]; both sexes, human, plasma, oral, with multiple doses, both dose cohorts, read-out: total DGLA Median T (tmax)): 8 to 10 h
Peak Trough Fluctuation (PTF), mean (Table 24, total DGLA) ([4]; first of both dose cohorts (2000 mg)): 62.5%
Peak Trough Fluctuation (PTF), mean (Table 24, total DGLA) ([4]; second of both dose cohorts (4000 mg)): 44.9%
Mean total DGLA concentrations in skin blister fluid, Day 28 vs Day 1 ([5]; 2000 mg daily): about 2.5 fold
Mean total DGLA concentrations in skin blister fluid, Day 28 vs Day 1 ([5]; 4000 mg daily): ~3 fold
change of mean free DGLA concentrations in skin blister fluid with a doubling in dose (in words) [5, 7]: approximately doubled
increase of mean total DGLA concentrations in skin blister fluid with a doubling in dose [5, 7]: about 1.4 fold
Compound: CCCCC/C=C\C/C=C\C/C=C\CCCCCCC(=O)O [DGLA, Dihomo gamma linolenic acid]
Diastol arterial pressure [1, 8]: 75 mm Hg
Systol arterial pressure [1, 8]: 120 mm Hg
Diastol arterial pressure ([1]; DGLA 500 mg/kg gavage 7 days, before intravenous phenylephrine): 80 mm Hg
effect on arterial pressure in spontaneously hypertensive rats (in words) ([1]; DGLA alone, 50 or 500 mg/kg gavage 7 days): successfully decreases the arterial pressure

Compound: COc1ccccc1OCCNCC(O)COc1cccc2[nH]c3ccccc3c12 (stereo not shown) [Carvedilol, reference compound]
effect on mean systemic arterial pressure (in words) ([1]; carvedilol 0.1 mg/kg iv after phenylephrine): significant decrease
effect on blood pressure (in words) ([1]; carvedilol 0.1 mg/kg iv, DGLA + aspirin-fed animals): significant decrease in blood pressure

plasma free 15-HETrE concentration [6]: < 100 ng/m L
Compound: CCCCC[C@H](O)/C=C/C=C\C/C=C\CCCCCCC(=O)O [Batch 15-HETrE, 15-Hydroxyeicosatrienoic acid]

Compound: CNC[C@H](O)c1cccc(O)c1 [phenylephrine, reference compound]
effect on mean systemic arterial pressure (in words) ([1]; phenylephrine 3, 10, 20 μg/kg iv): increased mean systemic arterial pressure with increasing doses
